# According to publication PMC6986909 (Nature, 2020):
# Columns and labels:
# Assay type in all cases: biochemical
# Crn1 Sso2081 = target: T1, Crn1 Sso2081 (Saccharolobus solfataricus, UniProt Q7LYJ6); test: single-turnover cleavage of […]-labelled cA4, denaturing PAGE / TLC; conditions: 4 uM dimer, Tris-HCl pH 8.0, 100 mM NaCl, 1 mM EDTA, 50 °C; labelled compound
# T1 sequence (Q7LYJ6 1-178): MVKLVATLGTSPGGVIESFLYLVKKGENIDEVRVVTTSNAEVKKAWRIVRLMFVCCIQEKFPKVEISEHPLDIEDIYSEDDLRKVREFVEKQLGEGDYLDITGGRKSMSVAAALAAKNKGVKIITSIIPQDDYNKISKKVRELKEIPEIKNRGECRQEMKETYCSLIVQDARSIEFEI
# AcrIII-1 YddF = target: T2, AcrIII-1 YddF (Bacillus subtilis, UniProt P96643); test: as above; conditions: 8 uM dimer, MES pH 6.0, 100 mM NaCl, 1 mM EDTA, 37 °C; labelled compound
# T2 sequence (P96643 1-108): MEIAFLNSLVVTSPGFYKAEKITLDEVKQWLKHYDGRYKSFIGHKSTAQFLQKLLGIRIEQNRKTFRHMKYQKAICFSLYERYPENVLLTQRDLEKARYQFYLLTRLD
# AcrIII-1 SIRV1 gp29 = target: T3, AcrIII-1 SIRV1 gp29 (Sulfolobus islandicus rod-shaped virus 1, UniProt Q8QL27); test: degradation of unlabelled cA6, TLC under […] nm UV; conditions: 40 uM dimer, 450 uM cA6, MES pH 5.5, 70 °C; weak substrate, very slow
# T3 sequence (Q8QL27 1-114): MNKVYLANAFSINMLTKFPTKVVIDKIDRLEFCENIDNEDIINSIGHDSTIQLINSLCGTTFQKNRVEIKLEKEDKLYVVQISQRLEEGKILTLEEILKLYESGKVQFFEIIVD
Structure (SMILES),"single-turnover cleavage of 32P-labelled cA4, denaturing PAGE / TLC (Crn1 Sso2081)","single-turnover cleavage of 32P-labelled cA4, denaturing PAGE / TLC (AcrIII-1 YddF)","degradation of unlabelled cA6, TLC under 254 nm UV (AcrIII-1 SIRV1 gp29)"
Nc1ncnc2c1ncn2[C@@H]1O[C@@H]2COP(=O)(O)O[C@H]3[C@@H](O)[C@H](n4cnc5c(N)ncnc54)O[C@@H]3COP(=O)(O)O[C@H]3[C@@H](O)[C@H](n4cnc5c(N)ncnc54)O[C@@H]3COP(=O)(O)O[C@H]3[C@@H](O)[C@H](n4cnc5c(N)ncnc54)O[C@@H]3COP(=O)(O)O[C@H]2[C@H]1O [cA4],Kinetic comparison of cA4 degradation by the AcrIII-1 enzymes SIRV1 gp29 and YddF,"Both proteins possess a potent ring nuclease activity, rapidly degrading cA4",
Nc1ncnc2c1ncn2[C@@H]1O[C@@H]2COP(=O)(O)O[C@H]3[C@@H](O)[C@H](n4cnc5c(N)ncnc54)O[C@@H]3COP(=O)(O)O[C@H]3[C@@H](O)[C@H](n4cnc5c(N)ncnc54)O[C@@H]3COP(=O)(O)O[C@H]3[C@@H](O)[C@H](n4cnc5c(N)ncnc54)O[C@@H]3COP(=O)(O)O[C@H]3[C@@H](O)[C@H](n4cnc5c(N)ncnc54)O[C@@H]3COP(=O)(O)O[C@H]3[C@@H](O)[C@H](n4cnc5c(N)ncnc54)O[C@@H]3COP(=O)(O)O[C@H]2[C@H]1O [cA6],,,"strong preference for cA4 over cA6, with the latter degraded very slowly by comparison"
